From US20050048001A1, “Pharmaceutical formulations of salmeterol” (priority 1999, published 2005)

Assay: Solubility of forms of salmeterol in ethanol/HFA mixtures
Assay type: physicochemical
Settings: mixtures of ethanol/HFA134a and ethanol/HFA227; relative to racemic salmeterol xinafoate
From the text: FIG. 6: Chart to show the solubility of various forms of salmeterol in a number of different solvents.

SMILES	solubility
O=C(O)c1ccc2ccccc2c1O.OCc1cc(C(O)CNCCCCCCOCCCCc2ccccc2)ccc1O (centres unmarked) [R-salmeterol xinafoate]	significantly more soluble
OCc1cc(C(O)CNCCCCCCOCCCCc2ccccc2)ccc1O (stereo not drawn) [salmeterol base, 4-hydroxy-α^1-[[[6-(4-phenylbutoxy)hexyl]amino]methyl]-1,3-benzenedimethanol]	substantially more soluble
